Source: ChEMBL document CHEMBL1833938 (Bioorg Med Chem Lett, 2011)
Values after ≈ are worked out from the molar mass of the structure shown.

What was measured:
physchem [1] = settings: octanol/water, pH 1.5
physchem [2] = settings: octanol/water, pH 5
physchem [3] = settings: octanol/water, pH 6.5
physchem [4] = settings: octanol/water, pH 7.4
Staphylococcus aureus = assay: microbe, parasite or virus in culture; settings: ATCC 29213
[5] = system: Mycobacterium tuberculosis; assay: microbe, parasite or virus in culture; settings: H37Rv
Francisella tularensis = assay: microbe, parasite or virus in culture; settings: Schu S4
Escherichia coli = assay: microbe, parasite or virus in culture; settings: ATCC 25922

SMILES | logD (physchem [1]) | logD (physchem [2]) | logD (physchem [3]) | logD (physchem [4]) | MIC (Staphylococcus aureus) | MIC [5] | MIC (Francisella tularensis) | MIC (Escherichia coli)
CO[C@@H]1[C@@H](OC(N)=O)[C@@H](O)[C@H](Oc2ccc3c(O)c(NC(=O)c4cc(CC=C(C)C)c(O)c(CN(C)C(=O)CS(C)(=O)=O)c4)c(=O)oc3c2C)OC1(C)C | 1.29 | 1.28 | 1.15 | 0.6 | > 64 µg/mL | > 10 µg/mL | > 64 µg/mL | > 64 µg/mL
CO[C@@H]1[C@@H](OC(N)=O)[C@@H](O)[C@H](Oc2ccc3c(O)c(NC(=O)c4cc(CC=C(C)C)c(O)c(CN(C)C(=O)C(C)(C)C)c4)c(=O)oc3c2C)OC1(C)C | 4.23 | 4.23 | 4.1 | 3.58 | 16 µg/mL (≈ 21.6 µM) | > 10 µg/mL | 64 µg/mL (≈ 86.5 µM) | > 64 µg/mL
CCN(CC)Cc1cc(C(=O)Nc2c(O)c3ccc(O[C@@H]4OC(C)(C)[C@H](OC)[C@@H](OC(N)=O)[C@H]4O)c(C)c3oc2=O)cc(CC=C(C)C)c1O | 0.42 | 0.81 | 1.7 | 1.53 | > 64 µg/mL | > 10 µg/mL | > 64 µg/mL | > 64 µg/mL
CO[C@@H]1[C@@H](OC(N)=O)[C@@H](O)[C@H](Oc2ccc3c(O)c(NC(=O)c4cc(CC=C(C)C)c(O)c(CN(C)C(=O)[C@H](C)OC(C)=O)c4)c(=O)oc3c2C)OC1(C)C | 2.62 | 2.62 | 2.49 | 1.97 | 16 µg/mL (≈ 20.8 µM) | 2.5 µg/mL (≈ 3.25 µM) | > 64 µg/mL | > 64 µg/mL
CO[C@@H]1[C@@H](OC(N)=O)[C@@H](O)[C@H](Oc2ccc3c(O)c(NC(=O)c4cc(CC=C(C)C)c(O)c(CN5CCN(c6ncccn6)CC5)c4)c(=O)oc3c2C)OC1(C)C | -0.46 | 1.46 | 2.63 | 2.48 | > 64 µg/mL | > 10 µg/mL | > 64 µg/mL | > 64 µg/mL
CO[C@@H]1[C@@H](OC(N)=O)[C@@H](O)[C@H](Oc2ccc3c(O)c(NC(=O)c4cc(CC=C(C)C)c(O)c(CN(C)C(=O)CCCS(N)(=O)=O)c4)c(=O)oc3c2C)OC1(C)C | 1.27 | 1.27 | 1.14 | 0.62 | 16 µg/mL (≈ 19.9 µM) | 10 µg/mL (≈ 12.4 µM) | > 64 µg/mL | > 64 µg/mL
CO[C@@H]1[C@@H](OC(N)=O)[C@@H](O)[C@H](Oc2ccc3c(O)c(NC(=O)c4cc(CC=C(C)C)c(O)c(CN(C)C(=O)CCC(=O)O)c4)c(=O)oc3c2C)OC1(C)C | 2.25 | 0.93 | -0.61 | -1.7 | 64 µg/mL (≈ 84.7 µM) | > 10 µg/mL | > 64 µg/mL | > 64 µg/mL
CO[C@@H]1[C@@H](OC(N)=O)[C@@H](O)[C@H](Oc2ccc3c(O)c(NC(=O)c4cc(CC=C(C)C)c(O)c(CN(C)C(=O)Cc5nnn[nH]5)c4)c(=O)oc3c2C)OC1(C)C | 1.9 | 1.13 | 0.24 | -0.35 | > 64 µg/mL | > 10 µg/mL | > 64 µg/mL | > 64 µg/mL
CO[C@@H]1[C@@H](OC(N)=O)[C@@H](O)[C@H](Oc2ccc3c(O)c(NC(=O)c4cc(CC=C(C)C)c(O)c(CN(C)C(=O)CNC(C)=O)c4)c(=O)oc3c2C)OC1(C)C | 1.33 | 1.32 | 1.19 | 0.67 | 16 µg/mL (≈ 21.2 µM) | 2.5 µg/mL (≈ 3.31 µM) | > 64 µg/mL | > 64 µg/mL
CO[C@@H]1[C@@H](OC(N)=O)[C@@H](O)[C@H](Oc2ccc3c(O)c(NC(=O)c4cc(CC=C(C)C)c(O)c(CN(C)C(=O)CN(C)C)c4)c(=O)oc3c2C)OC1(C)C | -1.18 |  | 1.15 | 1.32 | > 64 µg/mL | > 10 µg/mL | > 64 µg/mL | > 64 µg/mL
CO[C@@H]1[C@@H](OC(N)=O)[C@@H](O)[C@H](Oc2ccc3c(O)c(NC(=O)c4cc(CC=C(C)C)c(O)c(CN5CCN(CCCN(C)C)CC5)c4)c(=O)oc3c2C)OC1(C)C | -4 | -2.97 | -1.32 | -0.59 | > 64 µg/mL | > 10 µg/mL | > 64 µg/mL | > 64 µg/mL
CO[C@@H]1[C@@H](OC(N)=O)[C@@H](O)[C@H](Oc2ccc3c(O)c(NC(=O)c4cc(CC=C(C)C)c(O)c(CN(C)C(=O)c5ccccc5)c4)c(=O)oc3c2C)OC1(C)C | 4.28 | 4.28 | 4.15 | 3.63 | > 64 µg/mL | > 10 µg/mL | > 64 µg/mL | > 64 µg/mL
CO[C@@H]1[C@@H](OC(N)=O)[C@@H](O)[C@H](Oc2ccc3c(O)c(NC(=O)c4cc(CC=C(C)C)c(O)c(CN5CCCC5)c4)c(=O)oc3c2C)OC1(C)C | 0.11 | 0.38 | 1.34 | 1.39 | > 64 µg/mL | 10 µg/mL (≈ 14.4 µM) | > 64 µg/mL | > 64 µg/mL
